Test results: the RepoRT retention time repository

assay: RP, Thermo Scientific Hypersil GOLD, 1.9 µm, 40 °C, 0.4 mL/min; A: water + 0.1% formic acid, pH 3; B: acetonitrile + 0.1% formic acid, pH 3; gradient (min/%B) 0/0 1/0 11/100 13/100 14/0 16/0; settings: stereoisomer not certain

SMILES	LC retention time
CS(=N)(=O)CCC(N)C(=O)O (stereo not given) [METHIONINE SULFOXIMINE]	0.62 min
COC1OC(CO)C(O)C(O)C1O (stereo not given) [METHYL GALACTOSIDE]	0.74 min
CSCC1OC(n2cnc3c(N)ncnc32)C(O)C1O (stereo not given) [METHYLTHIOADENOSINE]	4.41 min
CC(O)(CCO)CC(=O)[O-] (stereo not given) [MEVALONATE]	0.55 min
OC1C(O)C(O)C(O)C(O)C1O (stereo not given) [MYOINOSITOL]	0.61 min
OCC1OC(OC2C(CO)OC(OC3C(CO)OC(O)C(O)C3O)C(O)C2O)C(O)C(O)C1O (stereo not given) [Maltotriose]	0.61 min
CC(CC(=O)O)C(=O)O (stereo not given) [Methyl-succinic acid]	3.66 min
CC(=O)NCCCNCCCCNCCCN [N1-ACETYLSPERMINE]	0.5 min
CC(C)=CCNc1ncnc2nc[nH]c12 [N6-(DELTA2-ISOPENTENYL)-ADENINE]	5.26 min
CC(=O)NC(C)C(=O)O (stereo not given) [N-ACETYLALANINE]	1.24 min
CC(=O)NC(CC(=O)O)C(=O)O (stereo not given) [N-ACETYLASPARTATE]	0.83 min
CC(=O)NC(CS)C(=O)O (stereo not given) [N-ACETYLCYSTEINE]	1.9 min
CC(=O)NC(CCC(=O)O)C(=O)O (stereo not given) [N-ACETYLGLUTAMATE]	0.93 min
CC(=O)NCC(=O)O [N-ACETYLGLYCINE]	0.83 min
CC(=O)NC(CC(C)C)C(=O)O (stereo not given) [N-ACETYLLEUCINE]	5.47 min
CSCCC(NC(C)=O)C(=O)O (stereo not given) [N-ACETYLMETHIONINE]	4.61 min
CC(=O)NCCCCN [N-ACETYLPUTRESCINE]	0.71 min
CC(=O)NC(CO)C(=O)O (stereo not given) [N-ACETYLSERINE]	0.78 min
CC(=O)NC(CCCC[NH3+])C(=O)[O-] (stereo not drawn) [N-ALPHA-ACETYLLYSINE]	0.72 min
CCCCCCCCCCCCCC=CC(O)C(CO)NC(C)=O [N-Acetyl-D-sphingosine]	10.8 min
CNC(CC(=O)O)C(=O)O (stereo not given) [N-METHYLASPARTATE]	0.63 min
CNC(CCC(=O)O)C(=O)O (stereo not given) [N-METHYLGLUTAMATE]	0.66 min
CNCCc1c[nH]c2ccccc12 [N-METHYLTRYPTAMINE]	4.93 min
CN(C)c1ccc(N)cc1 [N-N-DIMETHYL-1-4-PHENYLENEDIAMINE]	0.83 min

SMILES	LC retention time
C[N+](C)(C)CCCCC(N)C(=O)[O-] (stereo not given) [N-N-N-TRIMETHYLLYSINE]	0.59 min
CN(C)CC(=O)O [N-N-dimethylglycine]	0.63 min
NC(=O)c1ccc[n+](C2OC(COP(=O)(O)OP(=O)(O)OCC3OC(n4cnc5c(N)ncnc54)C(OP(=O)(O)O)C3O)C(O)C2O)c1 (stereo not given) [NADP]	4.21 min
CCCCCCCCC=CCCCCCCCCCCCCCC(=O)[O-] [NERVONATE]	14 min
NC(=O)c1ccc[n+](C2OC(COP(=O)(O)OP(=O)(O)OCC3OC(n4cnc5c(=O)[nH]cnc54)C(O)C3O)C(O)C2O)c1 (stereo not given) [NICOTINAMIDE HYPOXANTHINE DINUCLEOTIDE]	0.82 min
CCCCC(N)C(=O)O (stereo not given) [NORLEUCINE]	1.67 min
COc1cc(C(O)CN)ccc1O (stereo not given) [NORMETANEPHRINE]	0.82 min
NCCCNCCCN [NORSPERMIDINE]	0.49 min
CCCC(N)C(=O)O (stereo not given) [NORVALINE]	0.82 min
CC(=O)OCC(N)C(=O)O (stereo not given) [O-ACETYLSERINE]	0.69 min
NCCOP(=O)(O)O [O-PHOSPHOETHANOLAMINE]	0.61 min
NC(CCOC(=O)CCC(=O)O)C(=O)O (stereo not given) [O-SUCCINYL-HOMOSERINE]	0.82 min
CCCCCCCCC=CCCCCCCCC(=O)OCC(O)CO (stereo not given) [OLEOYL-GLYCEROL]	12.1 min
O=C(O)CCCCCCCCCCCO [OMEGA-HYDROXYDODECANOATE]	7.84 min
CCC(NC(=O)CCC(N)C(=O)O)C(=O)NCC(=O)O (stereo not given) [OPHTHALMATE]	0.83 min
O=C([O-])c1cc(=O)[nH]c(=O)[nH]1 [OROTATE]	0.77 min
CCCCCCCC(=O)OC(CC(=O)[O-])C[N+](C)(C)C [Octanoyl-L-carnitine]	6.74 min
NCC(O)c1ccc(O)cc1 (stereo not given) [P-OCTOPAMINE]	0.71 min
OCC1OC(OCC2OC(O)(CO)C(O)C2O)C(O)C(O)C1O (stereo not given) [PALATINOSE]	0.67 min
CCCCCCC=CCCCCCCCC(=O)O [PALMITOLEATE]	11.7 min
CC(C)(CO)C(O)C(=O)NCCC(=O)O (stereo not given) [PANTOTHENATE]	4.11 min
Cn1c(=O)[nH]c2ncn(C)c2c1=O [PARAXANTHINE]	4.41 min
CCCCCCCCCCCC=CCCCCC(=O)[O-] [PETROSELINATE]	12.5 min
NCCc1ccccc1 [PHENETHYLAMINE]	4.03 min

SMILES	LC retention time
NCC(O)c1ccccc1 (stereo not given) [PHENYLETHANOLAMINE]	2.24 min
C[N+](C)(C)CCOP(=O)(O)O [PHOSPHORYLCHOLINE]	0.64 min
O=C(O)C1CCCN1 (stereo not given) [PROLINE]	0.69 min
C=Cc1c(C)c2cc3[nH]c(cc4nc(cc5nc(cc1[nH]2)C(C)=C5CCC(=O)O)C(CCC(=O)O)=C4C)c(C)c3C=C [PROTOPORPHYRIN]	11.7 min
Nc1nc2nccnc2c(=O)[nH]1 [PTERIN]	0.82 min
c1ncc2[nH]cnc2n1 [PURINE]	0.81 min
NCCCCN [PUTRESCINE]	0.54 min
Cc1ncc(CO)c(CN)c1O [PYRIDOXAMINE]	0.59 min
Cc1ncc(CO)c(CO)c1O [PYRIDOXINE]	0.82 min
CCCCCCCCCCCCCCCC(=O)OC(CC(=O)[O-])C[N+](C)(C)C [Palmitoyl-L-carnitine]	9.69 min
O=P(O)(O)O [Phosphoric acid_+H+]	0.64 min
CC(C)CC(NC(=O)C1CCCN1)C(=O)O (stereo not given) [Pro-Leu]	4.4 min
O=C(O)C1(O)CC(O)C(O)C(O)C1 (stereo not given) [QUINATE]	0.68 min
OCC1OC(OCC2OC(OC3(CO)OC(CO)C(O)C3O)C(O)C(O)C2O)C(O)C(O)C1O (stereo not given) [RAFFINOSE]	0.68 min
CC(C=CC1=C(C)CCCC1(C)C)=CC=CC(C)=CC(=O)[O-] [RETINOATE]	11.5 min
OCC(O)C(O)C(O)CO (stereo not given) [RIBITOL]	0.64 min
Cc1cc2nc3c(=O)[nH]c(=O)nc-3n(CC(O)C(O)C(O)CO)c2cc1C (stereo not given) [RIBOFLAVIN]	5.05 min
OCC1OC(O)C(O)C1O (stereo not given) [RIBOSE]	0.66 min
Nc1ncnc2c1ncn2C1OC(CSCCC([NH3+])C(=O)[O-])C(O)C1O (stereo not given) [S-ADENOSYLHOMOCYSTEINE]	0.82 min
C[S+](CCC(N)C(=O)[O-])CC1OC(n2cnc3c(N)ncnc32)C(O)C1O (stereo not given) [S-ADENOSYLMETHIONINE]	0.59 min
NC(CSCC(=O)O)C(=O)O (stereo not given) [S-CARBOXYMETHYLCYSTEINE]	0.68 min
CCCCCCSCC(NC(=O)CCC(N)C(=O)O)C(=O)NCC(=O)O (stereo not given) [S-HEXYL-GLUTATHIONE]	6.32 min

Other lines, results leading:

LC retention time	SMILES
6.4 min	COC(=O)c1ccc(O)c(OC)c1 [METHYL VANILLATE]
6.29 min	O=c1c(O)c(-c2ccc(O)cc2O)oc2cc(O)cc(O)c12 [Morin hydrate]
5.73 min	CC(=O)NC(Cc1ccccc1)C(=O)O (stereo not given) [N-ACETYLPHENYLALANINE]
4.86 min	CC(=O)NCCc1c[nH]c2ccc(O)cc12 [N-ACETYLSEROTONIN]
5.83 min	CC(=O)NC(Cc1c[nH]c2ccccc12)C(=O)O (stereo not given) [N-ACETYLTRYPTOPHAN]
4.56 min	CC(=O)N[C@@H](Cc1ccc(O)cc1)C(=O)O [N-Acetyl-L-tyrosine]
4.28 min	CSCC[C@H](NC=O)C(=O)O [N-FORMYL-L-METHIONINE]
0.74 min	O=CNCC(=O)O [N-FORMYLGLYCINE]
8.5 min	c1ccc(CNc2ccccc2)cc1 [N-benzylaniline]
1.6 min	Cn1cc(C(N)=O)ccc1=O [N-methyl-2-pyridone-5-carboxamide]
0.68 min	NC(=O)c1ccc[n+](C2OC(COP(=O)([O-])O)C(O)C2O)c1 (stereo not given) [NICOTINAMIDE MONONUCLEOTIDE]
0.83 min	NC(=O)c1cccnc1 [NICOTINAMIDE]
0.65 min	NCC(O)c1ccc(O)c(O)c1 (stereo not given) [NORADRENALINE]
7.04 min	O=C1CC(c2ccc(O)cc2)Oc2cc(O)cc(O)c21 (stereo not given) [Naringenin]
0.83 min	O=C(O)c1ccc[n+]([O-])c1 [Nicotinic acid N-oxide]
0.81 min	O=C(O)c1cccnc1 [Nicotinic acid]
0.82 min	O=C1CCC(C(=O)O)N1 (stereo not given) [OXOPROLINE]
6.21 min	Oc1ccccc1 [PHENOL]
10.3 min	O=CCc1ccccc1 [PHENYLACETALDEHYDE]
5.26 min	O=C(O)C(=O)Cc1ccccc1 [PHENYLPYRUVATE]
0.82 min	O=C([O-])c1ccccn1 [PICOLINATE]
0.83 min	Cc1ncc(COP(=O)(O)O)c(C=O)c1O [PYRIDOXAL-PHOSPHATE]
0.72 min	Cc1ncc(CO)c(C=O)c1O [PYRIDOXAL]
4.3 min	O=C(O)c1ccc[nH]1 [PYRROLE-2-CARBOXYLATE]
2.04 min	O=C(O)c1cccc[n+]1[O-] [Picolinic acid N-oxide]
1.22 min	O=C(O)c1cccnc1C(=O)O [QUINOLINATE]
3.83 min	c1ccc2ncccc2c1 [QUINOLINE]
5.53 min	O=c1c(OC2OC(CO)C(O)C(O)C2O)c(-c2ccc(O)c(O)c2)oc2cc(O)cc(O)c12 [Quercetin-3-beta-D-glucoside]
6.1 min	CC(=O)Oc1cccc(O)c1 [RESORCINOL MONOACETATE]
6.02 min	O=C(C=Cc1ccc(O)c(O)c1)OC(Cc1ccc(O)c(O)c1)C(=O)O (stereo not given) [ROSMARINATE]
